Results from ChEMBL document CHEMBL4052759, “Discovery of DS79182026: A potent orally active hepcidin production inhibitor” (Bioorg Med Chem Lett, 2017).
Values belong to the compound of their own block, whether it stands above or below them.

Columns and labels:
[1] = biological target: RAC-beta serine/threonine-protein kinase (Homo sapiens) (UniProt P31751); assay: Inhibition of AKT2 (unknown origin) at 0.078 uM relative to control
[2] = biological target: MAP kinase-activated protein kinase 2 (Homo sapiens) (UniProt P49137); assay: Inhibition of MAPKAPK2 (unknown origin) at 0.078 uM relative to control
[3] = Metabolic stability in mouse liver microsomes assessed as […] by measuring parent compound remaining at 1 uM after 0.5 hrs by LC-MS/MS analysis; type: ADME; settings: read-out: Stability
[4] = biological target: Protein kinase C iota type (Homo sapiens) (UniProt P41743); assay: Inhibition of PKC-iota (unknown origin) at 0.45 uM relative to control
[5] = biological target: Testis-specific serine/threonine-protein kinase 1 (Homo sapiens) (UniProt Q9BXA7); assay: Inhibition of TSSK1 (unknown origin) at 0.45 uM relative to control
[6] = biological target: Fibroblast growth factor receptor 1 (Homo sapiens) (UniProt P11362); assay: Inhibition of FGFR1 (unknown origin) at 0.45 uM relative to control
[7] = system: Fibroblast growth factor receptor 2 (Homo sapiens), P21802 [N549H]; assay: Inhibition of FGFR2 N549H mutant (unknown origin) at 0.45 uM
[8] = biological target: Inhibitor of nuclear factor kappa-B kinase subunit epsilon (Homo sapiens) (UniProt Q14164); assay: Inhibition of IKBKE (unknown origin) at 0.45 uM relative to control
[9] = biological target: Death-associated protein kinase 1 (Homo sapiens) (UniProt P53355); assay: Inhibition of DAPK1 (unknown origin) at 0.45 uM relative to control
[10] = biological target: Serine/threonine-protein kinase PAK 4 (Homo sapiens) (UniProt O96013); assay: Inhibition of PAK4 (unknown origin) at 0.45 uM relative to control
[11] = biological target: Tyrosine-protein kinase ITK/TSK (Homo sapiens) (UniProt Q08881); assay: Inhibition of ITK (unknown origin) at 0.45 uM relative to control
[12] = system: Hepatocyte growth factor receptor (Homo sapiens), P08581 [M1250T]; assay: Inhibition of MET M1250T mutant (unknown origin) at 0.45 uM relative to control
Homo sapiens = organism: Homo sapiens; assay: Inhibition of ACK (unknown origin) at 0.45 uM relative to control
[13] = biological target: Cytoplasmic tyrosine-protein kinase BMX (Homo sapiens) (UniProt P51813); assay: Inhibition of BMX (unknown origin) at 0.45 uM relative to control
[14] = biological target: MAP/microtubule affinity-regulating kinase 3 (Homo sapiens) (UniProt P27448); assay: Inhibition of c-TAK1 (unknown origin) at 0.45 uM relative to control
[15] = biological target: Protein kinase C beta (Homo sapiens) (UniProt P05771); assay: Inhibition of PKC-beta2 (unknown origin) at 0.45 uM relative to control
[16] = biological target: Ephrin type-B receptor 4 (Homo sapiens) (UniProt P54760); assay: Inhibition of EPHB4 (unknown origin) at 0.49 uM relative to control
[17] = biological target: Protein kinase C gamma type (Homo sapiens) (UniProt P05129); assay: Inhibition of PKC-gamma (unknown origin) at 0.49 uM relative to control
[18] = biological target: Ribosomal protein S6 kinase alpha-1 (Homo sapiens) (UniProt Q15418); assay: Inhibition of RSK1 (unknown origin) at 0.49 uM relative to control
[19] = biological target: AMP-activated protein kinase, AMPK (Homo sapiens) (UniProt P54646+O43741+P54619+Q9UGJ0+Q9Y478+Q13131+Q9UGI9); assay: Inhibition of AMPK (unknown origin) at 0.49 uM relative to control
[20] = biological target: Dual specificity protein kinase CLK3 (Homo sapiens) (UniProt P49761); assay: Inhibition of CLK3 (unknown origin) at 0.49 uM relative to control
[21] = biological target: Fibroblast growth factor receptor 4 (Homo sapiens) (UniProt P22455); assay: Inhibition of FGFR4 (unknown origin) at 0.49 uM relative to control
[22] = biological target: Tyrosine-protein kinase JAK2 (Homo sapiens) (UniProt O60674); assay: Inhibition of JAK2 (unknown origin) at 0.49 uM relative to control
[23] = biological target: T1, Calcium/calmodulin-dependent protein kinase type IV (Homo sapiens) (UniProt Q16566); assay: Inhibition of CAMK4 (unknown origin) at 0.49 uM relative to control
T1 sequence (whole entry): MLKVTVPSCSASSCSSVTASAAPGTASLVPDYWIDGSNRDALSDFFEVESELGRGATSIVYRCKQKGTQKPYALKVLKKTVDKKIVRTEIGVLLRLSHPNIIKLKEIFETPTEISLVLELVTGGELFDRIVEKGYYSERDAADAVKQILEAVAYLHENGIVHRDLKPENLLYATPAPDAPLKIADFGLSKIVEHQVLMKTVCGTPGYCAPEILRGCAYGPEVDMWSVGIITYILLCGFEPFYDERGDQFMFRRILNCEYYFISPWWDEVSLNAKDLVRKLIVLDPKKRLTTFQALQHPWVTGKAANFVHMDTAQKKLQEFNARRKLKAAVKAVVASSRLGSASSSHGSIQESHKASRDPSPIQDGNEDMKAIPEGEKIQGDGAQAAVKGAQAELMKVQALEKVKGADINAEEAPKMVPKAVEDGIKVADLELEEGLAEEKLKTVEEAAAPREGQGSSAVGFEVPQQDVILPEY

[24] = biological target: Phosphorylase b kinase gamma catalytic chain, liver/testis isoform (Homo sapiens) (UniProt P15735); assay: Inhibition of PhKg2 (unknown origin) at 0.49 uM relative to control
[25] = biological target: Serine/threonine-protein kinase PAK 2 (Homo sapiens) (UniProt Q13177); assay: Inhibition of PAK2 (unknown origin) at 0.49 uM relative to control
[26] = system: Tyrosine-protein kinase ABL1 (Homo sapiens), P00519 [H396P]; assay: Inhibition of Abl H396P mutant (unknown origin) at 0.49 uM relative to control
[27] = biological target: Epidermal growth factor receptor (Homo sapiens) (UniProt P00533); assay: Inhibition of EGFR (unknown origin) at 0.49 uM relative to control
[28] = system: Epidermal growth factor receptor (Homo sapiens), P00533 [T790M]; assay: Inhibition of EGFR T790M mutant (unknown origin) at 0.49 uM relative to control
[29] = system: Hepatocyte growth factor receptor (Homo sapiens), P08581 [M1250T]; assay: Inhibition of MET M1250T mutant (unknown origin) at 0.49 uM relative to control
[30] = biological target: Proto-oncogene tyrosine-protein kinase ROS (Homo sapiens) (UniProt P08922); assay: Inhibition of ROS (unknown origin) at 0.49 uM relative to control
[31] = biological target: NT-3 growth factor receptor (Homo sapiens) (UniProt Q16288); assay: Inhibition of TRKC (unknown origin) at 0.49 uM relative to control

inhibition [1]: 4%
inhibition [2]: 4.7%
Compound: COC(=O)Nc1noc2cc(-c3c(-c4ccccn4)n[nH]c3C)ccc12

remaining at 0.5 h, 1 µM [3]: 94%
inhibition [4]: -6.7%
inhibition [5]: -1%
inhibition [6]: 35%
inhibition [7]: 40%
inhibition [8]: 6.3%
inhibition [10]: 4%
inhibition [11]: 89%
inhibition [12]: 5%
inhibition (Homo sapiens): 13%
inhibition [13]: 4.7%
inhibition [14]: 15%
inhibition [15]: 3.7%
Compound: Cc1n[nH]c(C)c1-c1ccc2c(NC(=O)c3ccc(N4CCN(C)CC4)cc3)n[nH]c2c1
inhibition [9]: -1.3%

inhibition [16]: 1.7%
inhibition [17]: 2%
inhibition [18]: 2.3%
inhibition [19]: 2%
inhibition [20]: 0.7%
inhibition [21]: 0.3%
inhibition [22]: -1.7%
inhibition [23]: 2.3%
inhibition [24]: 0.3%
inhibition [25]: -0.3%
inhibition [26]: 36.7%
inhibition [27]: -7.3%
inhibition [28]: 0.7%
inhibition [29]: 1.3%
inhibition [30]: -2.3%
inhibition [31]: 6.3%
Compound: Cc1[nH]nc(C2CC2)c1-c1ccc2c(NC(=O)C3CC3)noc2c1
